According to US20080119530A1, “Method for treatment and prevention of ultraviolet light induced skin pathologies” (priority 2006, published 2008):

Tests used:
[1] = test system: Tg.AC mice; test: UV-induced skin tumorigenesis in v-rasHa transgenic Tg.AC mice; type: in vivo, mouse
Text: Animals. Homozygous v-rasHa transgenic mice on an FVB/N background were used in in vivo experiments. To obtain keratinocytes with genetic ablation of Erbb2, loxP sites were inserted flanking exon 2 of Erbb2 such that splicing from exon1 to downstream introns upon Cre recombinase expression creates a frameshift mutation. Mice were maintained in our animal facility and provided with Purina lab chow (Nestle Purina PetCare, St. Louis, Mo.) and water ad libitum. The dorsal skin was clipped one day before treatment using electric clippers (Wahl, Sterling, II) and shaved on the day of treatment with a Remington Microscreen shaver (Madison, N.C.). […] The Ultraviolet-B TL 40W/12 RS bulbs (Philips, Somerset, N.J.) used emitted approximately 30% UVA, 70% UVB and <1% UVC, with a total output of 470 μW/cm^2, as measured with radiometric photodetector probes (Newport, Irvine, Calif.). For tumor experiments, homozygous Tg.AC mice were treated and exposed twice with an interval of 7 d. Tumor number was counted and tumor volume measured weekly using calipers. Skin-fold thickness was measured using calipers (Mitutoyo, Aurora, Ill.) to lightly pinch the dorsal skin. All animal procedures were performed in accordance with American Association of Laboratory Animal Care guidelines and approved by Creighton University's Institutional Animal Care and Use Committee.
Statistical methods. The tumor experiment was analyzed using two-way ANOVA. Statistical significance in other experiments was assessed using two-way ANOVA or Student's t-test with Bonferroni post-test. All experiments, excluding the tumor experiment, were replicated several times and consistent results obtained.
The skin tumorigenesis experiment was performed in v-ras^Ha transgenic Tg.AC mice because of their enhanced sensitivity to UV-induced skin tumorigenesis (13; 52). […] While the vehicle-treated mice continued to accrue tumors throughout the duration of the experiment, the AG825-treated group reached a plateau in tumor number by 7 weeks after the first UV exposure. By the end of the experiment, mean tumor volume was also 70% less in the AG825-treated group when compared to the vehicle control. Representative tumors from each treatment were examined histologically and all were benign squamous papillomas with similar differentiation status.
Upon activation, Erbb2 heterodimerizes with either EGFR or Erbb3 to transduce signals. Support for the hypothesis that Erbb2 increases skin carcinogenesis comes from our investigations of the functions of its dimerization partner EGFR. A tumor study was conducted to assess the role of EGFR in the clonal expansion of transformed cells to form benign tumors in the skin of v-ras^Ha transgenic Tg.AC mice. Inhibition of EGFR with the tyrphostin inhibitor AG1478 decreased the number of tumors that developed by about 50% in UV-exposed v-rasHa transgenic mice. Mean tumor volume was 80% less upon inhibition of EGFR-mediated signaling when compared to, UV-exposed and vehicle-treated controls.

[2] = test system: primary keratinocytes; test: BrdU incorporation (DNA synthesis) in cultured primary keratinocytes; type: cell-based, mouse
Text: Cell culture. […] Keratinocytes were transfected with Erbb2-targeted siRNA (32), Stealth RNAi Negative Control LO GC (Invitrogen, Carlsbad, Calif.), Cy3-conjugated Label IT RNAi Delivery Control (Mirus, Madison, Wis.) or sham transfection with TransIT-siQUEST Transfection Reagent (Mirus, Madison, Wis.). Plasmids with Cdc25a (Hassepass et al. 2003a) and EGFP (enhanced green fluorescent protein) cDNA were cotransfected with Lipofectamine Transfection Reagent (Invitrogen, Carlsbad, Calif.). Transfection efficiency was quantified by determining the proportion of the cells that incorporated the fluorescent Cy3-conjugated siRNA or GFP one day post-transfection. […]
Cell cycle. […] For in vitro analysis, keratinocytes were resuspended, fixed in 70% ethanol, resuspended in Vindelov's solution (3.5 mM Tris base, pH 7.6, 10 mM NaCl, 10 μg/ml Ribonuclease A, 75 μg/ml propidium iodide, 1.01l/ml IPEGAL), and analyzed on a FACSCalibur flow cytometer (Becton Dickinson, Franklin Lakes, N.J.). Cell cycle distributions were determined using ModFit LT 3.1 software (Verity Software House, Topsham, Me.). […]
Proliferation and apoptosis assays. Proliferation, survival and apoptosis were quantified in three replicate experiments. BrdU uptake was measured by a chemiluminescenit BrdU Cell Proliferation ELISA (Roche, Germany). […] MUH fluorescence from wells lacking cells was subtracted from all samples. […]

Structure (SMILES): COc1cc(/C=C(\C#N)C(N)=O)cc(CSc2nc3ccccc3s2)c1O [AG825]
- tumors per mouse by the end of the experiment ([1]; 4 mg AG825 topically 2 h prior to each of two 10 kJ/m^2 UV exposures 7 d apart): 15
- tumor multiplicity decreased ([1]; 12 weeks later): more than half
- tumor volume decreased ([1]; 12 weeks later): more than half
- time by which tumor number reached a plateau ([1]; after the first UV exposure): ≤ 7 weeks
- mean tumor volume less than vehicle control ([1]; by the end of the experiment): 70%
- development of tumors blocked ([1]; inhibition of Erbb2 prior to UV irradiation, vs vehicle): more than half
- UV-induced carcinogenesis (FIG. 6) ([1]; topical treatment 2 h prior to UV irradiation): suppress
- BrdU incorporation ([2]; by 12 h after UV irradiation): reduced to nearly zero
- BrdU incorporation ([2]; sham-irradiated keratinocytes): significantly reduced
